# Source: patent publication US8802674B2, “Aminopyrimidine derivatives as LRRK2 modulators” (Genentech, Inc., priority 2011, dated 2014)
# pKi: −log10 of the molar value.
# Molecular target: LRRK2 (Homo sapiens (Human), UniProt Q5S007, G2019S)
# Test: In Vitro LRRK2 LabChip Assay
# Assay type: biochemical
# Settings: Table 4
# In short: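 Phosphorylated and unphosphorylated peptides were separated by capillary electrophoresis and quantified by fluorescence. Ki came from a tight-binding equation, given in μM.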
# LRRK2, sequence (Q5S007 970-2527 G2019S limits assumed): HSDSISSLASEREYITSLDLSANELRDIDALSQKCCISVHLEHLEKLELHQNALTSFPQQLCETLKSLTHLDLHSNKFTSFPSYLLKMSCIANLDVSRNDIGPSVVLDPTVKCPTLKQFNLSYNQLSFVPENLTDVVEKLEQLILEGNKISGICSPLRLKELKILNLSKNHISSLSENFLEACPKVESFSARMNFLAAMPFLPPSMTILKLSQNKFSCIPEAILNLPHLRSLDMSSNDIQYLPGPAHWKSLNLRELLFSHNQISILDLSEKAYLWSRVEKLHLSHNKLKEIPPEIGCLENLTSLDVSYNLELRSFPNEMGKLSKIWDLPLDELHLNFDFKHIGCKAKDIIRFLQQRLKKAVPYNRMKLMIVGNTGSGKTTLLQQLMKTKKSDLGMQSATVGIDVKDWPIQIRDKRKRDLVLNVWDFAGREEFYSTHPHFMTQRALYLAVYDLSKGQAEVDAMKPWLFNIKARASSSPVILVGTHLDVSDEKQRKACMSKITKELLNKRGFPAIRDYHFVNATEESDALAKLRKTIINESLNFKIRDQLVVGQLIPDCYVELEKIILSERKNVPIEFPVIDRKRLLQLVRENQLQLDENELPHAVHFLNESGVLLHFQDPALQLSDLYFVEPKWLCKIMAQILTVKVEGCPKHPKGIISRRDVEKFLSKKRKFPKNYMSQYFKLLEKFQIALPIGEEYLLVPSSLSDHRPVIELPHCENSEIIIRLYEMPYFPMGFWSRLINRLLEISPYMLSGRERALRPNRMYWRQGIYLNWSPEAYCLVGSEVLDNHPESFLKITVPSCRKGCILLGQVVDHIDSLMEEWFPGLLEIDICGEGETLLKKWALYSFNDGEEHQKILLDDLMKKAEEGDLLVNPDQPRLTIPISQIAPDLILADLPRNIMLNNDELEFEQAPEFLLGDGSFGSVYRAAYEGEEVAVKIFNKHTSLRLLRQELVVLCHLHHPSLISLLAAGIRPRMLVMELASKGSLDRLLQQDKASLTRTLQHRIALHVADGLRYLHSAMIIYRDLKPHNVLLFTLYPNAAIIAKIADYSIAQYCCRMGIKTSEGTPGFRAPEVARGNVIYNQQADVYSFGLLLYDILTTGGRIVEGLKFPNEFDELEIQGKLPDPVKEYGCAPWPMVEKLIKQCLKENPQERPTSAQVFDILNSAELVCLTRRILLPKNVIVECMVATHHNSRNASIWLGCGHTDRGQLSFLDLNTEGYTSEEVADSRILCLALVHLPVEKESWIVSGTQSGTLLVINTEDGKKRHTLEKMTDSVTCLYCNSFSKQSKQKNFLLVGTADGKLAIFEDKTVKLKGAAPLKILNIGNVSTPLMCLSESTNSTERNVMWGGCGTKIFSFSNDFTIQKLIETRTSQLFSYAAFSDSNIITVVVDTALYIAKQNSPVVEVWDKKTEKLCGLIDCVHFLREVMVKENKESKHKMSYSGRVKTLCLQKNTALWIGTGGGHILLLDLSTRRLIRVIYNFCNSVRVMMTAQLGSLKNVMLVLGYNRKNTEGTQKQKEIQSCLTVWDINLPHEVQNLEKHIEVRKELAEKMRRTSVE
row,pKi,SMILES
1,8.55,"CNc1nc(Nc2ccc(C(=O)N3CCCC(C(F)(F)F)C3)cc2OC)ncc1Cl (stereo not drawn) [Example 26, [4-(5-Chloro-4-methylamino-pyrimidin-2-ylamino)-3-methoxy-phenyl]-(3-trifluoromethyl-piperidin-1-yl)-methanone]"
2,7.75,"COc1cc(C(=O)N2CCOCC2)ccc1Nc1ncc(Cl)c(N2CCCC2)n1 [Example 255, (4-(5-chloro-4-(pyrrolidin-1-yl)pyrimidin-2-ylamino)-3-methoxyphenyl) (morpholino) methanone]"
3,8.55,"CCNc1nc(Nc2ccc(C(=O)N3C[C@@H]4C[C@H]3CO4)c(F)c2OC)ncc1C(F)(F)F [Example 242, (1S,4S)-2-oxa-5-azabicyclo[2.2.1] heptan-5-yl(4-(4-(ethylamino)-5-(trifluoromethyl)pyrimidin-2-ylamino)-2-fluoro-3-methoxyphenyl) methanone]"
4,8.70,"CNc1nc(Nc2ccc(C(=O)NC(C)C)cc2OC)ncc1Cl [Example 53, 4-(5-Chloro-4-methylamino-pyrimidin-2-ylamino)-N-isopropyl-3-methoxy-benzamide]"
5,8.62,"CNc1nc(Nc2ccc(C(=O)N3CCC(OC)CC3)cc2OC)ncc1Br [Example 76, [4-(5-Bromo-4-methylamino-pyrimidin-2-ylamino)-3-methoxy-phenyl]-(4-methoxy-piperidin-1-yl)-methanone]"

# The remaining lines, values behind:
row,SMILES,pKi
1,"CNc1nc(Nc2ccc(C(=O)N3CCC(O)CC3)cc2C)ncc1Cl [Example 233, (4-(5-chloro-4-(methylamino)pyrimidin-2-ylamino)-3-methylphenyl)(4-hydroxypiperidin-1-yl)methanone]",8.21
2,"COc1cc(CC(=O)N2CCOCC2)ccc1Nc1ncc(Br)c(OC)n1 [Example 226, 2-[4-(5-Bromo-4-methoxy-pyrimidin-2-ylamino)-3-methoxy-phenyl]-1-morpholin-4-yl-ethanone]",8.25
3,"CNc1nc(Nc2cc(OC)c(C(=O)N3CC(O)C3)cc2Cl)ncc1Cl [Example 169, [5-Chloro-4-(5-chloro-4-methylamino-pyrimidin-2-ylamino)-2-methoxy-phenyl]-(3-hydroxy-azetidin-1-yl)-methanone]",8.27
4,"CNc1nc(Nc2ccc(C(=O)N3CC[C@H](F)C3)cc2OC)ncc1C#N [Example 196, 2-[4-((S)-3-Fluoro-pyrrolidine-1-carbonyl)-2-methoxy-phenylamino]-4-methylamino-pyrimidine-5-carbonitrile]",8.22
5,"CNc1nc(Nc2ccc(C(=O)N3C[C@H](F)[C@@H](F)C3)cc2OC)ncc1C#N [Example 245, 2-(4-((3S,4S)-3,4-difluoropyrrolidine-1-carbonyl)-2-methoxyphenylamino)-4-(methylamino) pyrimidine-5-carbonitrile]",7.87
6,"CNc1nc(Nc2ccc(C(=O)NCCCN)cc2OC)ncc1Cl [Example 65, N-(3-Amino-propyl)-4-(5-chloro-4-methylamino-pyrimidin-2-ylamino)-3-methoxy-benzamide]",8.64
7,"CNc1nc(Nc2ccc(C(=O)N3CCC(F)C3)cc2OC)ncc1C#N (stereo in doubt) [Example 210, 2-[4-((R)-3-Fluoropyrrolidine-1-carbonyl)-2-methoxy-phenylamino]-4-methylamino-pyrimidine-5-carbonitrile]",8.03

# Same assay, conditions: Table 5
row,SMILES,pKi
1,"COc1nc(Nc2ccc(C(=O)N3CCOCC3)cc2Cl)ncc1Cl [Example 261, [3-Chloro-4-(5-chloro-4-methoxy-pyrimidin-2-ylamino)-phenyl]-morpholin-4-yl-methanone]",7.33

# Same assay, conditions: Table 6
row,SMILES,pKi
1,"CNc1nc(Nc2ccc(C(=O)N3CCOCC3)cc2OCC2CCC2)ncc1C(F)(F)F [Example 286, [3-Cyclobutyl-methoxy-4-(4-methylamino-5-trifluoromethyl-pyrimidin-2-ylamino)-phenyl]-morpholin-4-yl-methanone]",8.28
2,"COc1cc(C(=O)N2CCOCC2)c(Cl)cc1Nc1ncc(Br)c(OC)n1 [Example 294, [4-(5-Bromo-4-methoxy-pyrimidin-2-ylamino)-2-chloro-5-methoxy-phenyl]-morpholin-4-yl-methanone]",8.03
